System: Plasmodium falciparum
Test: GSK_TCMDC: Inhibition of Plasmodium falciparum 3D7 in whole erythrocytes, using parasite LDH activity as an index of growth.
Format: functional, organism-based
Details: Plasmodium falciparum, 3D7

Structure (SMILES) | XC50
Nc1nc(N)c2c(Sc3ccc(F)cc3)cccc2n1 | 1070 nM
Cc1cc2c3c(N)nc(N)nc3ccc2n1C(C)C | 8.52 nM
O=C(/C=C/c1ccc(Br)cc1)NCCCCCN1CCC(c2c[nH]c3ccccc23)CC1 | 724 nM
O=C(/C=C/c1ccc(Cl)c(Cl)c1)NCCCN1CCC(c2c[nH]c3ccccc23)CC1 | 966 nM
CN(C)Cc1ccc(-c2cc3ncnc(Nc4ccc(OCc5cccc(F)c5)c(Cl)c4)c3s2)[nH]1 | 174 nM
Cc1cc(OCCCN2CCCCC2)ccc1NC(=O)COc1ccc(Cl)cc1C(=O)c1cc(C#N)cc(C(F)(F)F)c1 | 1030 nM
Cc1cc(NC(=O)c2ccco2)ccc1OC1CCN(Cc2ccc(C#N)cc2)CC1 | 497 nM
Nc1c(I)cc(C(=O)Nc2ccc3nc4c(c(N)c3c2)CCCC4)cc1I | 143 nM
O=C(NCc1ccccc1)OC1CNCCC1c1ccc(C(O)Cc2ccccc2)cc1 (configuration not stated) | 576 nM
COc1cc(Nc2ccnc3cc(-c4ccncc4)ccc23)cc(OC)c1OC | 1080 nM
O=C(/C=C/c1ccccc1Cl)Nc1ccc(Br)c(OCCN2CCN(CCN3CCOCC3)CC2)c1 | 763 nM
CO/C(=C\C=C\c1cc2cc(Cl)c(Cl)cc2[nH]1)C(=O)NCCCN1CCN(c2cccc(O)c2)CC1 | 579 nM
O=S(=O)(NCCN1CCCC1)c1ccc(-c2cccc(CNCc3ccc(F)cc3)c2)cc1F | 787 nM
CC(CNC1CCN(CCn2c(=O)ccc3ccc(F)cc32)CC1)c1ccccc1 (configuration not stated) | 1270 nM
N=C1N=C(N)NCN1OCc1ccc(Cl)c(Cl)c1 | 194 nM
Cc1cc(=O)c(-c2ccc(OCc3ccc(OC(F)(F)F)cc3)cc2)c(C)[nH]1 | 736 nM
Cc1nc(-c2cccc(NC(C)C(=O)Nc3cc(C(F)(F)F)ccc3N3CCOCC3)c2)cs1 (configuration not stated) | 241 nM
COc1cc(C)cc(CN2CCC(Cc3ccccc3)CC2)c1O | 1020 nM
Cc1cc(Nc2ccccc2)nc(NCCOc2ccccc2)n1 | 728 nM
CC1(C)CN(CCC2CCC(NC(=O)/C=C/c3ccc(F)cc3F)CC2)Cc2ccc(C#N)cc21 (configuration not stated) | 787 nM
COc1ccc(OC)c(CC2c3ccc(Br)c(O)c3CCN2C)c1 (configuration not stated) | 754 nM
CN1CCC(NC(=O)c2cccc(Nc3cc(Nc4cccc(Br)c4)ncn3)c2)CC1 | 1010 nM
Cc1ccc2[nH]c3c(NCCCN(C)C)ncnc3c2c1 | 650 nM
CC(=O)Nc1csc(-c2cnc(/C=C(\C)C[C@@H]3OC[C@H](C[C@@H]4O[C@H]4[C@@H](C)[C@H](C)O)[C@@H](O)[C@H]3O)o2)c1 | 178 nM
COC(=O)c1cccc(CNCc2cccc(-c3csc(-c4nc5ccccc5[nH]4)c3)c2)c1 | 693 nM

Structure (SMILES) | XC50
CCO[C@H]1CN[C@H](C#Cc2cc3c(Nc4ccc(OCc5cccc(F)c5)c(Cl)c4)ncnc3s2)C1 | 939 nM
CC1(C)N=C(N)N=C(N)N1CCc1ccccc1 | 47.4 nM
COc1ccccc1-n1ccnc1SCC(=O)Nc1cccc(C(F)(F)F)c1 | 160 nM
N#Cc1cccc(C(=O)NC2CCN(c3ccnc(Nc4ccc(F)cc4)n3)C2)c1 (configuration not stated) | 396 nM
CCN(CC)CCOc1ccc(N(Cc2ccc(C(C)(C)C)cc2)C(=O)c2ccc(Cc3ccccc3)cc2)cc1OC | 773 nM
Cc1cccc2c(/C=C/C(=O)NC3CCC(CCN4CCc5ccc(C#N)cc5CC4)CC3)c[nH]c12 (configuration not stated) | 1220 nM
NCCCNc1nc(Nc2cccc(C(N)=O)c2)c2c(=O)[nH]ccc2n1 | 594 nM
CC(Cc1ccc(-c2nc3ccccc3[nH]2)cc1)NCC(O)c1cccc(C(F)(F)F)c1 (configuration not stated) | 352 nM
CN1CCC(NCc2ccc(-c3ccc(S(=O)(=O)NC4CCC4)s3)cc2)CC1 | 846 nM
O=C(Nc1cccc(CN2CCCN(CC3CCCCC3)CC2)c1)c1cc2ccccc2s1 | 814 nM
CCCCCCCNCCNc1cc(C)nc2ccccc12 | 386 nM
CCCC1N=C(N)N=C(N)N1c1cccc(C(F)(F)F)c1 (configuration not stated) | 594 nM
Cc1nn(-c2cccc(C(F)(F)F)c2)c2sc(C(=O)NC3CCN(C(C)C)CC3)cc12 | 898 nM
Cc1nc2ccc(S(=O)(=O)Nc3ccc(C(=O)N[C@@H](CCC(=O)O)C(=O)O)cc3)cc2c(=O)[nH]1 | 1010 nM
Cc1ccc(C(=O)Nc2ccc(-c3nc4ccccc4[nH]3)cc2)cc1S(=O)(=O)N1CCOCC1 | 1210 nM
c1ccc(CNc2nc(NCCc3c[nH]cn3)nc(N3CCCC4CCCCC43)n2)cc1 (configuration not stated) | 834 nM
CC(Cc1ccc(CNC(=O)c2ccc(CC(C)NCCc3cccc(Cl)c3)cc2)cc1)NCCc1cccc(Cl)c1 (configuration not stated) | 696 nM
N#Cc1cnc2cc(-c3cnc(CNCCN4CCOCC4)s3)ccc2c1Nc1ccc(Oc2ccccc2)cc1 | 726 nM
Cc1cc(CNC(c2ccccc2)C2CCC2)cc(C)c1O (configuration not stated) | 890 nM
COc1cc(NC(=O)c2ccc(-c3ccccc3)cc2)ccc1OCCCN1CCC(c2ccccc2)CC1 | 752 nM
CC(Cc1ccc(S(=O)(=O)N(C(C)C)C(C)C)cc1)NCC(O)c1cccc(C(F)(F)F)c1 (configuration not stated) | 685 nM
COc1cc(C=CC(=O)N2CCN(Cc3cccc(C)c3)CC2)ccc1OCc1c(C)noc1C | 1030 nM
O=C(NCCN1CCCC1)N1CCCN(c2ncnc3cc(-c4ccc(F)cc4)sc23)CC1 | 902 nM
CCOc1ccc2c(=NN=Cc3cccc(OC)c3OC)cc(C)[nH]c2c1 | 898 nM
Cc1onc(-c2ccccc2)c1-c1nc(NC2CCCC(C)C2)no1 (configuration not stated) | 836 nM

Structure (SMILES) | XC50
O=[N+]([O-])c1ccccc1C=NN=c1c2c([nH]c3ccccc13)CCCC2 | 311 nM
CCC(CC)C(CC(=O)NC(C)(C)CCc1ccccc1OC)Nc1ccc(C#N)c2ccccc12 (configuration not stated) | 796 nM
CCN1CCN(c2cc(C)c3cc(NC(=O)c4ccc(OC)c([N+](=O)[O-])c4)ccc3n2)CC1 | 553 nM
CN1CCN(c2cc(NC(=O)Nc3cccc(Cl)c3Cl)ccc2Cl)CC1 | 734 nM
NCCCN(Cc1ccc(Cl)c(Cl)c1)C(=O)Nc1ccc(Cl)c(Cl)c1 | 898 nM
CC(=NNC(S)=NCc1ccco1)c1ccccn1 | 254 nM
CCN(CC)CCNC(=O)c1ccc(N/C=C2\C(=O)Nc3ccc(S(=O)(=O)Cc4c(Cl)cccc4Cl)cc32)cc1 | 840 nM
COCC(=O)N(Cc1cccc(-c2ccc(CNCCc3ccccc3)cc2)c1)C1CCN(Cc2ccccc2)CC1 | 1100 nM
COc1ccc(CN(C)CCCc2ccc(NC(=O)c3cccc4c(=O)c5cccc(F)c5[nH]c34)cc2)cc1OC | 937 nM
COc1ccc2c(=O)ccn(CCN3CCC(NCc4ccc5c(n4)NC(=O)CS5)CC3)c2c1 | 233 nM
CNC(=N)c1ccc(NC(=O)c2ccc(C(=O)Nc3ccc(C(=N)NC)cc3)cc2)cc1 | 47.1 nM
CC1(CCN2CCC(c3c[nH]c4cnccc34)CC2)CCCc2c(Br)cccc2C1=O (configuration not stated) | 195 nM
CN(c1cc(NC(=O)c2ccc(F)cc2)ccn1)C1CCN(Cc2cccc(C#N)c2)CC1 | 831 nM
CCNC[C@H]1CCCN1CCOc1ccc(-n2cnc3cc(-c4ccc(Cl)cc4)sc3c2=O)cc1OC | 808 nM
Cc1cc(OCCN2CCCCC2)ccc1NC(=O)c1cccc2c(=O)n(Cc3ccc(Cl)cc3)cnc12 | 1060 nM
CCOc1ccc(NC(=O)c2ccc(NCCCN3CC(C)CC(C)C3)c([N+](=O)[O-])c2)cc1 (configuration not stated) | 705 nM
CCN(CC)CCN(CCN(CC)CC)c1ccc2c(c1)Sc1c(Cl)ccc(Cl)c1S2 | 876 nM
CC(=O)OC[C@H]1O[C@@H](C#Cc2ccccc2)[C@H](OC(C)=O)[C@@H](OC(C)=O)[C@@H]1OC(C)=O | 283 nM
FC(F)(F)c1ccc(CSc2ccc3nnc(-c4ccccn4)n3n2)cc1 | 817 nM
O=C(NCCCCN1CCC(c2cccc3ccccc23)CC1)c1ccc(NC(=O)c2ccc(Cl)cc2)cc1 | 784 nM
C[C@H](Cc1ccc(OCCCCCCCOc2ccc(C[C@@H](C)NC[C@H](O)c3cccc(Cl)c3)cc2)cc1)NC[C@H](O)c1cccc(Cl)c1 | 189 nM
Cn1cncc1-c1ccc2ncnc(Nc3ccc4c(cnn4Cc4ccccc4)c3)c2c1 | 180 nM
COc1ccc(CCN(C)CCCOc2ccc(NC(=O)c3cccc4c(=O)c5ccccc5[nH]c34)cc2)cc1OC | 912 nM
CCC/C=C/c1c(CNCCCNc2cc(=O)c3ccccc3[nH]2)sc(CC)c1Br | 889 nM
CN(C)CCOc1cc(NC(=O)Nc2cccc([N+](=O)[O-])c2)ccc1I | 743 nM

Structure (SMILES) | XC50
C=CCn1c(SCC(=O)Nc2cc(Cl)ccc2Cl)nc2sc(C)cc2c1=O | 71.6 nM
N#Cc1ccc(N[C@@H](CC2CCCCC2)C(=O)NCc2cc(F)c(F)cc2F)c2ccccc12 | 946 nM
CCN1CCN(c2cc(C)c3cc(NC(=O)c4cncc(Br)c4)ccc3n2)CC1 | 656 nM
CC(C)CCNCc1ccc(OCc2cccc(COc3ccc(CNCCC(C)C)cc3I)c2)c(I)c1 | 453 nM
CCc1ccnc2c(N3CCCC3=O)cc(C(=O)N[C@@H](Cc3ccccc3)[C@H](O)CNC3CCOCC3)cc12 | 381 nM
CN1CCCC(CN2CCN(Cc3ccc(-c4cccc(-c5nc6ccccc6[nH]5)c4)cc3)CC2)C1 (configuration not stated) | 132 nM
O=C(NCCCCN1CCC(c2ccc3c(c2OCCOCCO)CCCC3)CC1)c1ccc(-c2ccc(C(F)(F)F)cc2)cc1 | 275 nM
O=C(NC1CCN(Cc2ccccc2)CC1)c1ccc(-c2nc3cc(Cl)c(Cl)cc3[nH]2)s1 | 308 nM
COc1ccc(-c2ccc(CNC(=O)c3ccc(C#N)cc3)c(F)c2)cc1CN1CCCN(C)CC1 | 1140 nM
CCCc1cc(NCC)nc(Nc2ccc(C)cc2)n1 | 894 nM
N#Cc1ccc2[nH]cc(CN3CCC4(CC3)CN(CCNCc3ccccc3)C(=O)CO4)c2c1 | 758 nM
N=c1c2c(n(Cc3ccc(Cl)cc3Cl)c3c1CCC3)CCCC2 | 350 nM
NCCCOc1cnc(-c2ccccc2)c2nc(-c3nonc3N)n(CCc3ccccc3)c12 | 1270 nM
O=C(/C=C/c1ccc(Cl)c(Cl)c1)N(Cc1ccccc1)C1CCC(CN2CCC(c3c[nH]c4ccccc34)CC2)CC1 (configuration not stated) | 209 nM
Nc1ncc(-c2cccc(CCN3CCOCC3)c2)cc1-c1nc2cc(Br)ccc2[nH]1 | 277 nM
O=c1[nH]ccc2nc(N[C@@H]3CCCNC3)nc(Nc3ccc(S(=O)(=O)N4CCOCC4)cc3)c12 | 742 nM
CC(C)c1ncc(-c2ccncc2)c(C2CCC(CNC(=O)c3cccnc3)CC2)n1 (configuration not stated) | 776 nM
O=C(c1cccc(-c2noc(C(F)(F)F)n2)c1)N1CCN(c2nsc3ccccc23)CC1 | 145 nM
COc1ccc(CNCc2cccc(-c3cccc(-c4nc5cc(F)ccc5[nH]4)c3)c2)cc1 | 300 nM
Cc1nc(C)c(CC(=O)Nc2cccc(-c3cccc(-c4nc5cccc(C)c5[nH]4)c3)c2)s1 | 755 nM
Nc1ncc(-c2ccsc2)c2ccc(-c3cc(NCc4ccccc4)ncn3)cc12 | 861 nM
CC(CN1CCN(C)CC1)C(=O)Nc1cccc(-c2ccc(-c3nc4ccccc4[nH]3)s2)c1 (configuration not stated) | 632 nM
